Test results: US9765109B2, “2′-arabino-fluorooligonucleotide N3′→P5′ phosphoramidates: their synthesis and use” (Geron Corporation, priority 2000, dated 2017)

Key:
[1] = test system: natural phosphodiester RNA strand; test: Thermal denaturation (Tm) of duplexes with complementary RNA; type: binding; conditions: for Tm, RNA: duplex; for Tm difference of duplex with RNA: relative to 2′-deoxy phosphodiester oligonucleotide (experiment 1)
Protocol: (§1) ^31P NMR spectra were obtained on a Varian 400 MHz spectrometer. ^31P NMR spectra were referenced against 85% aqueous phosphoric acid. Anion exchange HPLC was performed using a Dionex DX 500 Chromatography System, with a Pharmacia Biotech Mono Q HR 5/5 or 10/16 ion exchange columns. Ion exchange HPLC was performed on the Dionex DX 500 system, using a Pharmacia Mono Q HR 5/5 column. Buffer A and B were: 10 mM NaOH, pH12 and 10 mM NaOH, 1.5 M NaCl, pH12, respectively. Oligonucleotides were eluted using a 1.5%/min. linear gradient of buffer B in A; flow 0.5 mL/min. Mass spectral analysis was performed by Mass Consortium, San Diego, Calif. MALDI-TOF analysis of oligonucleotides was obtained using a PerSpective Biosystems Voyager Elite mass spectrometer with delayed extraction. Thermal dissociation experiments were conducted on a Cary Bio 100 UV-Vis spectrometer.
(§2) ^ad, r, and a correspond to the 2′-deoxy, 2′-ribo-fluoro and to 2′-arabino-fluoronucleosides respectively; p and n correspond to the internucleoside phosphodiester and N3′→P5′ phosphoramidate linkages, respectively; ^bmelting temperature, Tm (±0.5° C.), of the duplexes formed with natural phosphodiester ssDNA or RNA strands, or: ^etriplexes formed with dA/dT duplex part of d(A10C4T10) hairpin. Buffers: ^c150 mM NaCl, 10 mM sodium phosphate buffer pit 7.4—first number, or in: ^dthe same buffer containing an additional 10 mM magnesium chloride—second number; n.o or n.d—the melting transitions and Tm's were not observed or not determined, respectively.
(§3) The ability of N3′→P5′ phosphoramidate 2′-arabino-fluorooligonucleotides to form complexes with complementary DNA and RNA strands was examined and compared with related oligonucleotide analogues using thermal denaturation experiments. […] (compare experiments 1 and 2, Table 1). […] Substitution of 2′-deoxy-3′-aminonucleosides by 2′-arabino-fluoro-3′-amino counterparts stabilized duplexes, by about 2-7° C., with DNA and RNA in a low ionic strength buffer. […] (compare experiments 3 and 6, Table 1).

[2] = test system: dA/dT duplex part of d(A10C4T10) hairpin; test: Thermal denaturation (Tm) of triplexes with dsDNA; type: binding; conditions: for Tm, dsDNA: triplex
Protocol: as §1
as §2, with “respectively. […]” for “respectively.”

[3] = test system: natural phosphodiester ssDNA; test: Thermal denaturation (Tm) of duplexes with complementary DNA; type: binding; conditions: for Tm, DNA: duplex
Protocol: as §1, §2, §3

[4] = Acid stability, half-life at pH 3; type: physicochemical
Protocol: (§4) It was reported that the 2′-ribo-fluoropyrimidine containing oligonucleotides with N3′→P5′ phosphoramidate or with phosphodiester internucleoside linkages are somewhat labile during treatment with aqueous ammonia at 55° C. (Schultz et al., Nucl. Acids Res., 24:2966-2973, 1996; Krug et al., Nucleosides Nucleotides, 8:1473-1483, 1989). Under these basic conditions pyrimidine-O2 mediated elimination of the 2′-fluorine atom takes place, resulting in formation of 2,3′-O-anhydronucleosides and multiple products of their consequent reactions with aqueous ammonia, including 2′-arabino-hydroxyl nucleosides (Krug et al., Nucleosides Nucleotides, 8:1473-1483, 1989). In contrast, the prepared 2′-arabino-fluoro phosphoramidate oligonucleotides were stable under these conditions.

[5] = Stability in concentrated aqueous ammonia, judged by IE HPLC; type: physicochemical; conditions: 24 hours, 55° C., IE HPLC analysis
Protocol: as §4

[6] = single value given, buffer not stated
[7] = 150 mM NaCl, 10 mM sodium phosphate buffer (first number)
[8] = same buffer with additional 10 mM magnesium chloride (second number)

Substance | Tm, RNA [1, 6] [°C] | Tm, dsDNA [2, 7] | Tm, dsDNA [2, 8] | Tm, RNA [1, 7] | Tm, RNA [1, 8] | Tm difference of duplex with RNA [1] | Tm, DNA [3, 7] | Tm, DNA [3, 8] [°C] | Effect of increasing buffer ionic strength on Tm of duplex with RNA [1] | Tm difference of duplexes ([1]; relative to 2′-arabino-fluoro phosphodiester SEQ ID NO:5 (experiments 3 and 6), DNA and RNA) | Relative stability of triplex with dsDNA ([2]; versus SEQ ID NO:6 and SEQ ID NOs:3-5, but not SEQ ID NO:7) | Base and acid stability (summary statement) [4] | Stability on exposure to concentrated aqueous ammonia [5] | Tm difference of complexes with both DNA and RNA strands ([1]; most stable complexes, compare experiments 5, 6 and 7) | Tm difference of complex with DNA (destabilization) ([3]; relative to 2′-deoxy phosphodiester oligonucleotide (experiments 1 and 2))
a(Cn^fUn^fCn^fUn^fCn^fUn^fGnCn^fCn^f) (CUCUCUGCC; 2'-arabino-fluoro phosphoramidate backbone; contains 2 prime-arabino-fluoronucleosides; test compounds) [SEQ ID NO:10, mixed base 2′-arabino-fluoro phosphoramidate oligonucleotide] | 66.8 |  |  |  |  |  |  |  |  |  |  |  |  |  | 
a(Up^fUp^fUp^fUp^fUp^fUp^fUp^fUp^fUp^fT) [SEQ ID NO:5] |  | < 14 °C | 20.9 °C | 27.5 °C | 28.6 °C | 8.3-9.6 °C | 17.0 °C | 25.0 |  |  |  |  |  |  | 
d(CnUnCnUnCnUnGnCnCn) (CUCUCUGCC; DNA, backbone, methylation of C and T or U not given here; phosphoramidate linkages) [SEQ ID NO:9, mixed base 2′-deoxy phosphoramidate oligonucleotide] | 66.7 |  |  |  |  |  |  |  |  |  |  |  |  |  | 
d(UnUnUnUnUnUnUnUnUnT) (UUUUUUUUUT; N3′→P5′ phosphoramidate; contains 2 prime-deoxy nucleosides; test compounds) [SEQ ID NO:6, 2′-deoxy N3′→P5′ phosphoramidate oligonucleotide] |  | <15; n.d ° C. |  | 38.1 °C | 47.2 °C |  | 18.5 °C | 38.2 | no effect | 8.7-12.5 °C |  |  |  |  | 
d(UpUpUpUpUpUpUpUpUpT) (UUUUUUUUUT; contains 2 prime-deoxy nucleosides; test compounds) [SEQ ID NO:3, 2′-deoxy phosphodiester oligonucleotide] |  | n.o;^c n.o^d | n.o;^c n.o^d | 17.9 °C | 20.3 °C |  | 16.7 °C | 24.6 |  |  |  |  |  |  | 
dT-a(Un^fUn^fUn^fUn^fUn^fUn^fUn^fUn^f Un^f) (TUUUUUUUUU; 2′-arabino-fluoro phosphoramidate; 5′ dT; contains 2 prime-deoxy and 2 prime-arabino- fluoronucleosides; test compounds) [SEQ ID NO:8, 2′-arabino-fluoro N3′→P5′ phosphoramidate decanucleotide] |  | 22.0 °C | 31.2 °C | 40.0; 40.0 °C | 40.0; 40.0 °C |  | 25.7 °C | 37.0 |  |  | more stable triplex | base and acid stable | practically intact |  | 
dT-r(Un^fUn^fUn^fUn^fUn^fUn^fUn^fUn^f Un^f) (TUUUUUUUUU; 2′-ribo-fluoro phosphoramidate; 5′ dT; contains 2 prime-deoxy and 2 prime-ribo- fluoronucleotides; test compounds) [SEQ ID NO:7, 2′-ribo-fluoro N3′→P5′ phosphoramidate oligonucleotide] |  | 42.2 °C | 54.1 °C | 55.5 °C | 61.9 °C |  | 37.4 °C | 56.3 |  |  |  |  | converted into a very complex mixture of products | 14-21 °C | 
r(Up^fUp^fUp^fUp^fUp^fUp^fUp^fUp^fUp^fT) (UUUUUUUUUT; 2′-ribo-fluoro; contains 2 prime-ribo-fluoronucleosides; test compounds) [SEQ ID NO:4, 2′-ribo-fluoro phosphodiester decanucleotide] |  | n.o; n.o | n.o; n.o | 32.9 °C | 36.6 °C | 15.0-16.3 °C | n.o | 18.0 |  |  |  |  |  |  | −6.7-16 °C
